Laboratory results as given in US20180213776A1, “COMPOSITIONS FOR C[…] POPULATIONS” (PRESIDENT AND FELLOWS OF HARVARD COLLEGE, priority 2015, published 2018).

Tests used:
mammals = conditions: cited from earlier work
An. gambiae females [1] = experiment: Dose dependency of egg laying (oviposition); type: in vivo; conditions: for individuals laying eggs: 24 hours prior to blood feeding, control 100%
Description: (§1) An. gambiae mosquitoes of the G3 strain were employed in all experiments. All mosquitoes were maintained under standard insectary conditions (26-28° C., 65-80% relative humidity, 12:12 hours light/dark photoperiod).
Mated females were tested for their ability to develop and lay eggs when exposed to DBH 24 hours prior to blood feeding at 5 different doses ranging in a 2-fold dilution series from about 2 μg to about 0.125 μg per mosquito, respectively. One hundred percent (100%) of the control females oviposited after a blood meal. […] An ED50 dose of […] (0.08-0.13 95% CI) was determined from the dose-response curve (slope of 2.32, R=0.993). Moreover, even in cases where females oviposited, a significant reduction in the number of eggs laid was detected at the three highest doses (e.g., 2 μg; 1 μg; and 0.5 μg), with a median egg number of zero compared to a median of 91.5 eggs in the control group.

An. gambiae females [2] = experiment: Mating success (insemination) after topical DBH application; type: in vivo
Description: as §1
(§2) The DBH compound methoxyfenozide (0.5 μl of a 0.4% solution re-suspended in acetone) (Sigma-Aldrich, 32507) was topically applied to the thorax of An. gambiae females anesthetized on ice using a micropipette. Mating success, egg development after blood feeding and longevity were determined relative to acetone-treated controls. Females were 2 days old at the time of application, and each experiment was replicated twice. The effects of methoxyfenozide on mating success were determined by adding DBH-treated and control virgin females into separate cages containing a large excess of 5 day-old virgin males, 24 hours following topical application. 48 hours later successfully inseminated (mated) females from each cage were determined via dissection and the presence of sperm in the spermatheca. […] Egg development was evaluated 3 days later upon dissection of the ovaries.
(§3) A mating effect experiment was comprised of an unexposed and exposed group with cases defined as those who mated. The efficacy of the mating effect was defined as the prevented fraction in exposed, i.e. one minus the risk ratio. […]

An. gambiae females [3] = experiment: Longevity / mortality after DBH exposure; type: in vivo
Description: as §1
For the longevity experiments, DBH-treated and control females were maintained in cups and supplied ad libitum with a 10% sucrose solution and water. Mortality rates after DBH/acetone exposure were recorded daily for 2 weeks, encompassing the period needed for mosquitoes to become infectious.
Day post-exposure was stratified to account for the time varying nature in the mortality effect experiment. For each day, there is the number of exposed and unexposed mosquitoes surviving to that day (risk set), and the number in each group surviving through that day. Using the risk set in day i, the relative risk of surviving through day i (RRi) is estimated, comparing the exposed to the unexposed. The efficacy for the mortality was defined as one minus RRi for day i. The confidence interval for the relative risk of survival was estimated using a Normal approximation of ln(RRi), with standard error:
(§4) At the highest dose (2 μg), only 7.5% of females who fully engorged on an infectious blood meal were positive for oocysts, corresponding to an 87% reduction in infection prevalence relative to controls.

An. gambiae females [4] = experiment: Egg development after blood feeding; type: in vivo
Description: as §1, §2, §3

Aedes species = experiment: Preliminary data on eggs of Aedes species; type: in vivo
[5] = system: primary ovarian follicles; experiment: TUNEL assay of ovaries (apoptosis of ovarian follicles); type: in vivo, An. gambiae; conditions: 24 hours after DBH exposure
Text: Induction of autogenous egg development after exposure was not observed.

[6] = system: P. falciparum (NF54 strain); experiment: P. falciparum infection (oocysts) after infectious blood meal; type: in vivo
Description: as §4

## methoxyfenozide [DBH]
mammals
  carcinogenicity: non-carcinogenic
  toxicity to mammals: not toxic to mammals unless used at extremely high concentrations
An. gambiae females [1]; all DBH-exposed groups, upon dissection
  females with no eggs developed in the ovaries despite fully engorging on blood: 98.7%
An. gambiae females [1]; highest dose 2 μg per mosquito
  individuals laying eggs: 10.9%
An. gambiae females [1]; in vivo
  induction of autogenous egg development after exposure: not observed
An. gambiae females [1]; median dose 0.5 μg per mosquito
  individuals laying eggs: 47.4%
An. gambiae females [1]; three highest doses (2 μg; 1 μg; 0.5 μg), control median 91.5 eggs
  median egg number laid: zero
An. gambiae females [2]; prevented fraction in exposed, 68% CI 58-73%
  efficacy: reduced mating success (reduction): 67%
An. gambiae females [2]; treated once, 0.5 μl of 0.4% solution topically to thorax, controls 86%
  females successfully inseminated by males (sperm in the spermatheca): 29%
An. gambiae females [3]; 0.125 μg, control 19 days
  median survival time: 16 days
An. gambiae females [3]; 2 μg, control 19 days
  median survival time: 11 days
An. gambiae females [3]; 0.5 μl of 0.4% solution topical, controls 10%
  mortality over 14 days: ~100%
An. gambiae females [3]; 0.5 μl of 0.4% solution topical, recorded 2 weeks
  median survival time: 8 days
An. gambiae females [3]; day 8 post exposure, 68% CI 37-72%
  efficacy: maximum increase in daily mortality rate: 60%
An. gambiae females [3]; highest dose (2 μg)
  reduction in median survival time compared to controls: eight
An. gambiae females [4]; 0.5 μl of 0.4% solution topical, blood fed 24 hours after application, ovaries dissected 3 days later
  egg development after blood feeding: completely abolished
An. gambiae females [4]; prevented fraction in exposed, add-one smoothing, 68% CI 94-99%
  efficacy: impaired egg development (reduction): 98%
Aedes species
  effect on eggs: deformed eggs
[5]
  TUNEL: apoptosis of primary ovarian follicles: extensive fragmentation of chromatin, indicative of apoptosis
[6]; 2 μg
  reduction in infection prevalence relative to controls: 87%
[6]; 2 μg, 7 days post-infectious blood meal, control 58.5%
  females positive for oocysts: 7.5%
[6]; in vivo
  intensity of infection in females that developed oocysts: not significantly affected
[6]; low dose 0.125 μg, control 58.5%
  oocyst prevalence: 50.7%
[6]; median dose 0.5 μg
  females failed to develop an infection: 25.8%
  reduction in prevalence: 56%
